Source: patent US8772319B2 (priority 2004, dated 2014)
Like-named read-outs stand apart in the source and are kept apart here.

Key:
[1] = target: T1, human dopamine transporter (hDAT) (Homo sapiens, UniProt Q01959); assay: biochemical; type: binding; conditions: for Binding Ratios NET/DAT / Binding Ratios SERT/DAT: Table 5
[2] = target: T1, human dopamine transporter (hDAT); assay: cell-based; conditions: for Discrimination Ratios (DR) [3H]DA reuptake/DAT binding: Table 6; for IC50: Reuptake Inhibition [3H]DA IC50, Table 6
D1 receptor = target: T2, D1 receptor (Homo sapiens, UniProt P21728); assay: D1 receptor binding, LHD1 cells, [3H]SCH 23,390
T2 construct: expressed in transfected cells; host or cells: LHD1 cells

D2 receptor [3] = target: T3, D2 receptor (Homo sapiens, UniProt P14416); assay: D2 receptor binding, CHOp- cells, [3H]YM-09151-2
T3 construct: expressed in transfected cells; host or cells: CHOp- cells (CHOp-D2)

D3 receptor [4] = target: T4, D3 receptor (Homo sapiens, UniProt P35462); assay: D3 receptor binding, CHOp- cells, [3H]YM-09151-2
T4 construct: expressed in transfected cells; host or cells: CHOp- cells (CHOp-D3)

5-HT1A receptor = target: T5, 5-HT1A receptor (Homo sapiens, UniProt P08908); assay: 5-HT1A receptor binding, HA7 cells, [3H]8-OH-DPAT
T5 construct: expressed in transfected cells; host or cells: HA7 cells
T5 sequence (P08908 1-422): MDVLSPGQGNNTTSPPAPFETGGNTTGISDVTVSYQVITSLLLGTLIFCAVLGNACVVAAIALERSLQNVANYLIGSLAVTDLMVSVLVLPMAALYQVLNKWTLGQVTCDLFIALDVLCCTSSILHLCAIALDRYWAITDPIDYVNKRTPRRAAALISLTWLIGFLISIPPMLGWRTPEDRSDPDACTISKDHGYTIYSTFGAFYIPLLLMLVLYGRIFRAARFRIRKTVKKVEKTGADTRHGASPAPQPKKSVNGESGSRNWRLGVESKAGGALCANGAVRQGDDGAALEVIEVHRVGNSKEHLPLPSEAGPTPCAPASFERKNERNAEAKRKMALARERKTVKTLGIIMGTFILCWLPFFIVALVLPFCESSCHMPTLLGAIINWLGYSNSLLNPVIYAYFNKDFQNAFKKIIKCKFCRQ

5-HT2A receptor = target: T6, 5-HT2A receptor (Rattus norvegicus, UniProt P14842); assay: 5-HT2A receptor binding, NIH-3T3-GF6 cells, [3H]ketanserin
T6 construct: expressed in transfected cells; host or cells: NIH-3T3-GF6 cells

5-HT2C receptor = target: T7, 5-HT2C receptor (Rattus norvegicus, UniProt P08909); assay: 5-HT2C receptor binding, NIH-3T3-P cells, [3H]mesulergine
T7 construct: expressed in transfected cells; host or cells: NIH-3T3-P cells
T7 sequence (P08909 33-460): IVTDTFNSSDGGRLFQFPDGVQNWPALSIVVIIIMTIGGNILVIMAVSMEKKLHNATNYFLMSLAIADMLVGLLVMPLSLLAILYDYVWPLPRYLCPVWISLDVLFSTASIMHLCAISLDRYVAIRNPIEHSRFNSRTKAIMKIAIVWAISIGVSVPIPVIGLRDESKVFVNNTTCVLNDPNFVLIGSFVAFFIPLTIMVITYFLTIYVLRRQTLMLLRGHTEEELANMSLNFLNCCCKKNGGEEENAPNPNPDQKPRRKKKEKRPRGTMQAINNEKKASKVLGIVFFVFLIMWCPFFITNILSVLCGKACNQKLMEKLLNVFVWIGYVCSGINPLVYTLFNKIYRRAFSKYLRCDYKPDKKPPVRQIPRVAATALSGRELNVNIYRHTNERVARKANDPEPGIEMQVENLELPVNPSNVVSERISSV

D2 receptor [5] = target: T3, D2 receptor; assay: cell-based; conditions: read-out: D2 Antagonist activity IC50
D3 receptor [6] = target: T4, D3 receptor; assay: Inhibition of quinpirole-stimulated mitogenesis ([3H]thymidine incorporation), CHOp-D3 cells; type: cell-based
[7] = target: T8, human serotonin transporter (hSERT) (Homo sapiens, UniProt P31645); assay: biochemical; conditions: Table 5; [125I]RTI-55; oxalate salts; read-out: SERT binding affinity Ki
[8] = target: T9, human norepinephrine transporter (hNET) (Homo sapiens, UniProt P23975); assay: biochemical; conditions: Table 5; [125I]RTI-55; oxalate salts; read-out: NET binding affinity Ki
[9] = target: T8, human serotonin transporter (hSERT); assay: cell-based; conditions: Reuptake Inhibition [3H]5-HT IC50, Table 6
[10] = target: T9, human norepinephrine transporter (hNET); assay: cell-based; conditions: Table 6; read-out: Reuptake Inhibition [3H]NE IC50
male Swiss-Webster mice = assay: Cocaine/compound interaction study on locomotor activity; type: in vivo, mouse; conditions: 20 mg/kg of cocaine
[11] = Table 7, LHD1 cells, [3H]SCH 23,390, read-out: D1 Affinity Ki
[12] = Table 7, CHOp- cells, [3H]YM-09151-2, read-out: D2 Affinity Ki
[13] = Table 7, CHOp- cells, [3H]YM-09151-2, read-out: D3 Affinity Ki
[14] = Table 7, rat receptors, NIH-3T3-GF6 cells, [3H]ketanserin, read-out: 5-HT2A Affinity Ki

T6 sequence (P14842 whole entry): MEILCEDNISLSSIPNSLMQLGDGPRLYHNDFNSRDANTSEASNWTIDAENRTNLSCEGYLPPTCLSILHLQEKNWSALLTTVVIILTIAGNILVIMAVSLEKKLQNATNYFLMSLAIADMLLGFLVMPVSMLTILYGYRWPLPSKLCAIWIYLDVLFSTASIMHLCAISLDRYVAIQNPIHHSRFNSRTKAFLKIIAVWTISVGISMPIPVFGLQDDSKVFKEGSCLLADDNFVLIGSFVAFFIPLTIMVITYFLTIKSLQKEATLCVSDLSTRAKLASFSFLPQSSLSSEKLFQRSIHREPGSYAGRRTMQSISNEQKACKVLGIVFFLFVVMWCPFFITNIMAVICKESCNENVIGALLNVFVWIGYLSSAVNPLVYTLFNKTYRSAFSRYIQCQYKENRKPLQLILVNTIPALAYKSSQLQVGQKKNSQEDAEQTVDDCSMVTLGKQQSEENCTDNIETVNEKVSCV
T8 sequence (P31645 whole entry): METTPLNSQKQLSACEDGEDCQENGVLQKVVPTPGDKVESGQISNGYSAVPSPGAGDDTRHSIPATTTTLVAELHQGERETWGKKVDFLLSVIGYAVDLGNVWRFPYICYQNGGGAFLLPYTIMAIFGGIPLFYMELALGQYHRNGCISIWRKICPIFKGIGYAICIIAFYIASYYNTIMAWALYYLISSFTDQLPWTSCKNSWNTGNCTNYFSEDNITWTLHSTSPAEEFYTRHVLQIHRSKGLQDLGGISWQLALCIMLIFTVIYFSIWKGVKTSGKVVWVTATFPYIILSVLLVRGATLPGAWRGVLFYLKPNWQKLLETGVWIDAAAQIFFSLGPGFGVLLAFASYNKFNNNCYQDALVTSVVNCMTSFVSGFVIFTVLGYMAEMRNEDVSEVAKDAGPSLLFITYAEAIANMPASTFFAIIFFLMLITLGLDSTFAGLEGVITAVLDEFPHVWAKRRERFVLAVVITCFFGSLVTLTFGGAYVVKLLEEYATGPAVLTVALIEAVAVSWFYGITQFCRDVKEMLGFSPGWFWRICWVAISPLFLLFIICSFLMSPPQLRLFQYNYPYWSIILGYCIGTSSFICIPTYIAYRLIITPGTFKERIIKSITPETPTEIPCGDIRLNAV
T3 sequence (P14416 whole entry): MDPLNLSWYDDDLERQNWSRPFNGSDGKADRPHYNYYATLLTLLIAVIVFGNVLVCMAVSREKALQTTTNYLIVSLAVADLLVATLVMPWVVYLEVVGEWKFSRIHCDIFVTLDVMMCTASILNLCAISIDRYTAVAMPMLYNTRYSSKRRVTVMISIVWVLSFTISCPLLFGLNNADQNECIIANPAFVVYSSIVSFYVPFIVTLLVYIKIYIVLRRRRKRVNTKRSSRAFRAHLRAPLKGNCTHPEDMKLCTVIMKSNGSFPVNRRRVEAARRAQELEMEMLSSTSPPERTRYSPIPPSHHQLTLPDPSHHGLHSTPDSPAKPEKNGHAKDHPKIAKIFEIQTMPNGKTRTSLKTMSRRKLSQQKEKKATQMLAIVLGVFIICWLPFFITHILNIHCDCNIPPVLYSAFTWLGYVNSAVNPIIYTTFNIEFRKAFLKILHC
T2 sequence (P21728 whole entry): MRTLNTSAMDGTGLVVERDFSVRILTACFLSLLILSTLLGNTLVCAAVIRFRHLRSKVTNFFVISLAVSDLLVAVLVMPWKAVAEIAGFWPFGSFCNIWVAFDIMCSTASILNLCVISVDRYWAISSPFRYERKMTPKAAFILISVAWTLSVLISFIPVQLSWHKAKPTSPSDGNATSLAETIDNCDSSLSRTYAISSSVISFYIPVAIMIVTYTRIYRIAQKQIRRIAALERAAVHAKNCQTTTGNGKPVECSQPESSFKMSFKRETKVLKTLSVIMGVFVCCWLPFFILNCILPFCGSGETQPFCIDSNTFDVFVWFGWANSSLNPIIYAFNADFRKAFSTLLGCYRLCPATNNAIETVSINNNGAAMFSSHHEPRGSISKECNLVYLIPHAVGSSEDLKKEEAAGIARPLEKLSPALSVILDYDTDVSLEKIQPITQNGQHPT
T1 sequence (Q01959 whole entry): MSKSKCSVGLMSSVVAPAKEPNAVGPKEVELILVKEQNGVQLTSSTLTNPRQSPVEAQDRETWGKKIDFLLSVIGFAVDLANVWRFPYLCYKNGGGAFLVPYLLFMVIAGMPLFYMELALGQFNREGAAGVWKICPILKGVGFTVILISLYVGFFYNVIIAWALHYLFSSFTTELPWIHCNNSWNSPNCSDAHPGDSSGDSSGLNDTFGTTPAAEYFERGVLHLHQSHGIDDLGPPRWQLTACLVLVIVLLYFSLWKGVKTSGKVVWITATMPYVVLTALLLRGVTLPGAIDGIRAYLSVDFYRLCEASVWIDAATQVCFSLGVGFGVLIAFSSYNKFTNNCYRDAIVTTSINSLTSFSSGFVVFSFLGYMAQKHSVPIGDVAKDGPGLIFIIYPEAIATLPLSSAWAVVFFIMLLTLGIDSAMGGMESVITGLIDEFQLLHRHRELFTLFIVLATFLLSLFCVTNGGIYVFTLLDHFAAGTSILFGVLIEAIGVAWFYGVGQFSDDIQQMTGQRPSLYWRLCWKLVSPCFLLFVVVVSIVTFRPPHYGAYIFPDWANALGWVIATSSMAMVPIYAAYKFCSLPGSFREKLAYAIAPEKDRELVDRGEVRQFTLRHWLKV
T9 sequence (P23975 whole entry): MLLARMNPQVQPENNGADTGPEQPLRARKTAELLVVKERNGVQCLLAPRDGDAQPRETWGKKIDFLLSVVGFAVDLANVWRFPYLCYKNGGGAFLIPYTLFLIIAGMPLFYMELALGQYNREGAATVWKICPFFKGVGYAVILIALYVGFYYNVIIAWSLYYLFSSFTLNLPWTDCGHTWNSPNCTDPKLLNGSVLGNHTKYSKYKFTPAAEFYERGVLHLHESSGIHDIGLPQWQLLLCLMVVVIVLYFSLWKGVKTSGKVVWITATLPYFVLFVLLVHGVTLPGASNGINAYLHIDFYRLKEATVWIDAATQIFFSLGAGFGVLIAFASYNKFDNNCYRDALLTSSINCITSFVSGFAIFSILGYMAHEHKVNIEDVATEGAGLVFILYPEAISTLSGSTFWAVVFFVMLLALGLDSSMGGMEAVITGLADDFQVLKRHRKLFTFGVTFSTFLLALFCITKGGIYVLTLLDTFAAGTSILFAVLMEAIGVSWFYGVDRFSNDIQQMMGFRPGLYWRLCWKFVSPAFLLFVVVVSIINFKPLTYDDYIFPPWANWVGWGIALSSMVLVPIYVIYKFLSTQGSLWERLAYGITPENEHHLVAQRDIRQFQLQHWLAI
T4 sequence (P35462 whole entry): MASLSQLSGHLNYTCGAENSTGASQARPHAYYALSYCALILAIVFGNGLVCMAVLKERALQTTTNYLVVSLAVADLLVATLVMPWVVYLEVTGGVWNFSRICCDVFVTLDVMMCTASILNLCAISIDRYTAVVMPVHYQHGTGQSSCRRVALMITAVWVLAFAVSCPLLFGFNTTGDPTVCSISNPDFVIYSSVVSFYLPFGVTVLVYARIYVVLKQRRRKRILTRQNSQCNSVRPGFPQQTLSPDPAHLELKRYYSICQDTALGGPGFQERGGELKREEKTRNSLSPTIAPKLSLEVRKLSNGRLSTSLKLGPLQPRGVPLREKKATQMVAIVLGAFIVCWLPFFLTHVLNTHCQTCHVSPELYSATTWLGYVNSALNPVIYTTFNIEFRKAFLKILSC

SMILES	Binding Ratios NET/DAT [1]	Binding Ratios SERT/DAT [1]	Discrimination Ratios (DR) [3H]DA reuptake/DAT binding [2]	Ki (D1 receptor; [11]) [nM]	Ki (D2 receptor [3]; [12]) [nM]	Ki (D3 receptor [4]; [13]) [nM]	Ki (5-HT1A receptor) [nM]	Ki (5-HT2A receptor; [14]) [nM]	IC50 (D2 receptor [5]) [nM]	IC50 (D3 receptor [6]) [nM]	Ki (D1 receptor) [nM]	Ki (D2 receptor [3]) [nM]	Ki (D3 receptor [4]) [nM]	Ki (5-HT2A receptor) [nM]	Ki (5-HT2C receptor) [µM]	Ki [1] [nM]	Ki [7] [nM]	Ki [8] [nM]	IC50 [2] [nM]	IC50 [9] [nM]	further results
Fc1ccc(C(OCCCCN2CCN(c3ccccc3)CC2)c2ccc(F)cc2)cc1 [Compound 29, 1-Phenyl-4-[4-[bis(4-fluorophenyl)methoxy]butyl]piperazine]	3.3	0.8	23.2	2430 ± 367	447 ± 73.9	242 ± 7.41	285 ± 76.4	404 ± 52.6	120	44.6	–	–	–	–	–	–	–	–	–	–	Ki (5-HT2C receptor; Table 7, bound given in μM, read-out: 5-HT2C Affinity Ki): > 10 µM
Fc1ccc(C(OCCCCN2CCN(c3ccc(Cl)cc3)CC2)c2ccc(F)cc2)cc1 [Compound 34, 1-(4-Chlorophenyl)-4-[4-[bis(4-fluorophenyl)methoxy]butyl]piperazine]	7.6	0.7	23.4	–	–	–	> 10000	–	–	2.55	> 10000	> 10000	340 ± 143	1150 ± 44.2	> 10	–	–	–	–	–	antagonistic activity at D3 site (D3 receptor [6]; Table 7): selective and strong antagonistic activity
O=C(c1ccccc1)N1CCN(CCCCOC(c2ccc(F)cc2)c2ccc(F)cc2)CC1 [Compound 40, 1-Benzoyl-4-[1-[bis(4-fluorophenyl)methoxy]-4-butyl]piperazine]	18.5	4.4	32.5	6640 ± 313	95.5 ± 19.7	119 ± 49.8	1560 ± 271	4800 ± 2090	183	222	–	–	–	–	–	19.7 ± 2.5	87 ± 43	365 ± 69	640 ± 240	2170 ± 370	IC50 [10]: 32 ± 10 nM; Ki (5-HT2C receptor; Table 7, rat receptors, [3H]mesulergine, read-out: 5-HT2C Affinity Ki): 4.64 ± 0.586 µM
COc1ccccc1N1CCN(CCCCOC(c2ccc(F)cc2)c2ccc(F)cc2)CC1 [Compound 35, 1-(2-Methoxyphenyl)-4-[4-[bis(4-fluorophenyl)methoxy]butyl]piperazine]	3.5	9.7	11.5	–	–	–	34.9 ± 6.7	–	84.4	56.7	777 ± 185	134 ± 21.7	118 ± 31.9	698 ± 204	3 ± 0.0731	26.2 ± 2.5	255 ± 89	92 ± 11	301 ± 16	1230 ± 24	IC50 [10]: 176 ± 79 nM; binding for 5-HT1A (5-HT1A receptor; Table 7): moderate binding; Attenuation of cocaine-induced LMA (male Swiss-Webster mice): Attenuation
